Among the test systems are 786-0 renal; HS 578T breast; KM12 colon; M14 melanoma; SF-539 CNS; SNB-75 CNS; T-47D breast; UACC-257 melanoma.
Common to all, as to experiment: inhibition of tumour cell growth, NCI panel, 48 h

Where “and” joins values, the source holds several entries; their conditions need not be identical. Identical values can stand only once.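 Five compound concentrations were applied to cells in 96-well plates for 48 hours; endpoints were derived by simple linear interpolation of the resulting dose-response curve. GI50 = concentration required for 50% inhibition of growth. TGI is the concentration that stops growth completely.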

Regarding `Clc1ccccc1C(c1ccccc1)(c1ccccc1)n1ccnc1`, the GI50 in the test on 786-0 renal was 3.05 µM; in the test on HS 578T breast, 3.45 µM; in the test on KM12 colon, 2.23 µM; in the test with M14 melanoma, 2.23 µM; in the test on SF-539 CNS, 3.22 µM; with SNB-75 CNS, 2.14 µM. Further, the results for the GI50 in the test on T-47D breast and in the test with UACC-257 melanoma were 2.3 µM and 3.43 µM, respectively. Further, the TGI in the test on 786-0 renal was 10.6 µM and 43 µM; with HS 578T breast, 19.7 µM and 35.2 µM; with KM12 colon, 6.25 µM and 36.8 µM; in the test on M14 melanoma it was 5.46 µM and 29.8 µM; with SF-539 CNS it was 11.1 µM; in the test with SNB-75 CNS, 8.72 µM and 35.5 µM. The TGI in the test with T-47D breast was 14.5 µM and 30.4 µM; in the test with UACC-257 melanoma, 14.2 µM and 25.2 µM.

Consider `C=C1CCC2C(/C=C(\C)CCC1O)OC(=O)C2C` (configuration not stated), for which the GI50 in the test on 786-0 renal, with HS 578T breast, in the test with KM12 colon, in the test on M14 melanoma, in the test with SF-539 CNS and in the test on SNB-75 CNS was greater than 100 µM throughout. Moreover, the GI50 in the test with T-47D breast and in the test with UACC-257 melanoma was greater than 100 µM each time. The TGI in the test on 786-0 renal, in the test with HS 578T breast, with KM12 colon, in the test on M14 melanoma, with SF-539 CNS and with SNB-75 CNS was greater than 100 µM throughout. Also, the TGI with T-47D breast and in the test on UACC-257 melanoma was greater than 100 µM each time.

As to `C=C1C(=O)O[C@H]2[C@H]1CC/C(CNC(=O)c1c[nH]c3ccc(F)cc13)=C\CC[C@@]1(C)O[C@@H]21`, the GI50 in the test with 786-0 renal is 1.33 µM; in the test with HS 578T breast, 2.65 µM; with KM12 colon it was 2.69 µM; in the test with M14 melanoma, 1.04 µM; in the test on SF-539 CNS, 1.37 µM; in the test with SNB-75 CNS, 1.81 µM. The GI50 with T-47D breast was 1.36 µM; with UACC-257 melanoma, 2.06 µM. In addition, the TGI amounted to 2.85 µM with 786-0 renal; 13.1 µM in the test on HS 578T breast; 10.2 µM in the test on KM12 colon; 2.33 µM in the test on M14 melanoma; 2.81 µM in the test on SF-539 CNS; 16.2 µM with SNB-75 CNS. The results for the TGI in the test with T-47D breast and in the test on UACC-257 melanoma were 5.03 µM and 4.89 µM, respectively.

`COc1ccc(-c2nn(-c3cccc(Cl)c3)cc2C2CC(c3ccccc3)=NN2C(C)=O)cc1` (configuration not stated): the GI50 with 786-0 renal was 6.87 µM; in the test on HS 578T breast it was 2.81 µM; in the test on KM12 colon it was greater than 100 µM; in the test with M14 melanoma, 7.68 µM; in the test with SF-539 CNS, 5.4 µM; with SNB-75 CNS, 1.76 µM. The GI50 with T-47D breast is 8.53 µM; in the test on UACC-257 melanoma, 32.1 µM. The TGI with 786-0 renal is 97.2 µM; in the test on HS 578T breast, 20.1 µM; in the test on KM12 colon it was greater than 100 µM; in the test with M14 melanoma, greater than 100 µM; in the test with SF-539 CNS, 58.7 µM; with SNB-75 CNS, 5.99 µM. For the same compound, the TGI in the test with T-47D breast and in the test with UACC-257 melanoma was greater than 100 µM throughout.

Regarding `COc1cccc(/C=C/C(=O)c2cc3c(N)c(C(=O)Nc4ccccc4C)sc3nc2C)c1`, the GI50 is 0.912 µM with 786-0 renal; 1.63 µM in the test on HS 578T breast; 1.27 µM in the test on KM12 colon; 1.59 µM in the test with M14 melanoma; 1.13 µM in the test with SF-539 CNS; 1.05 µM in the test on SNB-75 CNS. The figures for the GI50 with T-47D breast and in the test with UACC-257 melanoma were 1.15 µM and 1.21 µM, respectively. Besides, the TGI in the test on 786-0 renal is 1.93 µM; in the test with HS 578T breast it was greater than 50 µM; with KM12 colon, 3.62 µM; in the test on M14 melanoma, 6.42 µM; with SF-539 CNS, 2.91 µM; with SNB-75 CNS, 3.15 µM. Moreover, the figures for the TGI in the test on T-47D breast and in the test on UACC-257 melanoma were 3.63 µM and 3.75 µM, respectively.

Consider `CC(=O)Nc1cccc(-n2c(=O)n(C3CC3)c(=O)c3c(Nc4ccc(I)cc4F)n(C)c(=O)c(C)c32)c1`, for which the GI50 in the test on 786-0 renal was 4.02 µM and > 7.71 µM; with HS 578T breast, 4.06 µM and 4.64 µM; in the test with KM12 colon, 0.0102 µM and 0.0225 µM; in the test with M14 melanoma it was < 0.01 µM and 0.00173 µM; with SF-539 CNS, 1.15 µM and > 3.69 µM; with SNB-75 CNS it was 3.2 µM and > 2.79 µM. The GI50 is 14.9 µM and > 10 µM with T-47D breast; < 0.01 µM and 0.00182 µM in the test on UACC-257 melanoma. Further, the TGI with 786-0 renal was greater than 57.7 µM; with HS 578T breast, 43.8 µM and > 10 µM; in the test with KM12 colon, greater than 53.7 µM; with M14 melanoma, less than 0.01 µM; with SF-539 CNS, 22.1 µM and > 10 µM; in the test with SNB-75 CNS, greater than 55.2 µM. Also, the TGI with T-47D breast is greater than 77 µM; in the test on UACC-257 melanoma, < 0.01 µM and 0.0126 µM.

`NC(CO)Cc1cnc[nH]1` (configuration not stated): the GI50 in the test with 786-0 renal, in the test on HS 578T breast, in the test on KM12 colon, with SF-539 CNS, in the test on SNB-75 CNS and in the test with T-47D breast was greater than 100 µM throughout. In addition, the TGI in the test with 786-0 renal, with HS 578T breast, in the test on KM12 colon, with M14 melanoma, with SF-539 CNS and with SNB-75 CNS was greater than 100 µM each time. Further, the TGI in the test on T-47D breast and in the test on UACC-257 melanoma was greater than 100 µM throughout.

As for `Cc1ccc2c(C(C[N+](=O)[O-])c3cccs3)c(-c3ccccc3)[nH]c2c1` (configuration not stated), the GI50 with 786-0 renal was 2.26 µM; in the test on HS 578T breast, 1.57 µM; in the test with KM12 colon, 1.54 µM; with M14 melanoma, 1.28 µM; with SF-539 CNS, 1.54 µM; with SNB-75 CNS, 0.638 µM. Also, the GI50 is 2.22 µM in the test on T-47D breast and 3.88 µM with UACC-257 melanoma. Also, the TGI with 786-0 renal amounted to 7.89 µM; with HS 578T breast it was 9.53 µM; with KM12 colon, 7.25 µM; with M14 melanoma it was 5.57 µM; in the test on SF-539 CNS it was 6.21 µM; with SNB-75 CNS, 2.49 µM. The figures for the TGI in the test on T-47D breast and in the test with UACC-257 melanoma were 27.4 µM and 13.7 µM, respectively.

As for `N#Cc1c(NC(=O)c2cccc(C(F)(F)F)c2)sc2c1CCC(=O)C2`, the GI50 was 0.716 µM in the test on 786-0 renal; 0.542 µM in the test on HS 578T breast; 0.477 µM in the test with KM12 colon; 0.525 µM with M14 melanoma; 0.329 µM in the test with SF-539 CNS; 1.19 µM with SNB-75 CNS. For the same compound, the GI50 is 0.297 µM with T-47D breast and 0.728 µM in the test with UACC-257 melanoma. Besides, the TGI in the test on 786-0 renal was found to be 5.85 µM; in the test with HS 578T breast it was 3.77 µM; in the test on KM12 colon, 1.95 µM; in the test with M14 melanoma, 2.22 µM; in the test on SF-539 CNS it was 1.23 µM; in the test on SNB-75 CNS, 3.13 µM. Besides, the TGI turned out to be 1.97 µM with T-47D breast and 3.85 µM in the test with UACC-257 melanoma.

The values above are taken from PubChem BioAssay (NCI).
